Assay results from EP0054974A1, “Imidazolylpropanol compounds and their acid addition salts, and production and use thereof” (SUMITOMO CHEMICAL COMPANY, LIMITED, priority 1980, dated 1982).
Converted amounts (≈) assume the structure as drawn.

Key:
Candida albicans KB-8 = assay: Antifungal activity in vivo (decrease of cells in the kidney of Candida-infected mice); conditions: for log reduction at 20 mg/kg: number of cells in kidney, 24 hours after infection; for Medicated group, number of cells in kidney: male DDY mice infected i.v. with Candida albicans KB-8, kidneys 24 hours after infection
Experimental: The in vivo test of the antifungal activity with the said representative ones of the imidazolylpropanol compounds (I) was carried out in the following manner:
Candida albicans KB-8 cultured on the Sabroud's. agar plate admixed with blood in a concentration of 5 % by weight at 30°C for 4 days was suspended in physiologically saline solution to make a number of cells of 10^7/ml. The suspension was intravenously injected through the tail vein into 5 week old male DDY mice at a dose of 0.2 ml per mouse. […]
After 24 hours from the infection, the animals were killed and the kidneys were taken out. Each kidney was admixed with sea sand and smashed. After diluting with physiologically saline solution to give 5 times in volume, the dilution was centrifuged at 900 rpm for 5 minutes. A certain amount of the supernatant was scattered on a Sabroud's agar plate and cultured at 37°C for 48 hours. Then, the number of colonies was counted, the number of cells per one gram of the kidney was calculated, and the difference between the calculated numbers in the medicated group and in the non-medicated group was expressed by a logarithmic value.

Trichophyton rubrum = assay: Antifungal activity in vitro, minimum inhibitory concentration on Sabouraud's agar medium; format: cell-based
Excerpt: (§1) The antifungal activity of some representatives of the imidazolylpropanol compounds (I) in in vitro test is as shown below.

Candida albicans Ohta = assay: as above; format: cell-based
Excerpt: as §1

[1] = system: Candida albicans MTU12001; assay: as above; format: cell-based
Excerpt: as §1

[2] = Candida albicans, KB8, po, dose 20 mg/kg per os, read-out: Medicated/Non-medicated (logarithmic value)

SMILES | log reduction at 20 mg/kg (Candida albicans KB-8; [2]) | Medicated group, number of cells in kidney (Candida albicans KB-8; dose 20 mg/kg per os) | MIC (Trichophyton rubrum) | MIC (Candida albicans Ohta) | MIC [1] | log reduction at 100 mg/kg (Candida albicans KB-8; Candida albicans, KB8, po, 24 h, read-out: Medicated/Non-medicated (logarithmic value)) | Medicated group, number of cells in kidney (Candida albicans KB-8; dose 100 mg/kg per os)
OC(CNCCN1CCOCC1)(Cn1ccnc1)c1ccc(Cl)cc1Cl (stereo not drawn) [the 6th table, row 7] | 1.23 | 9.78x10^3 cell/g | – | – | – | – | –
CCCCCSCC(O)(Cn1ccnc1)c1ccc(Cl)cc1Cl (stereo not drawn) [CH3-(CH2)4-S-] | – | – | 1.25 mg/L (≈ 3.35 µM) | 5 mg/L (≈ 13.4 µM) | 1.25 mg/L (≈ 3.35 µM) | – | –
CCCCCCSCC(O)(Cn1ccnc1)c1ccc(Cl)cc1Cl (stereo not drawn) [CH3-(CH2)5-S-] | – | – | 0.6 mg/L (≈ 1.55 µM) | 2.5 mg/L (≈ 6.45 µM) | 0.3 mg/L (≈ 0.774 µM) | – | –
CN1CCN(CC(O)(Cn2ccnc2)c2ccc(Cl)cc2Cl)CC1 (stereo not drawn) [the 7th table, row 5] | 1.59 | 8.32x10^3 cell/g | – | – | – | – | –
OC(CSc1ccc(F)cc1)(Cn1ccnc1)c1ccc(Cl)cc1Cl (stereo not drawn) | – | – | 40 mg/L (≈ 101 µM) | 2.5 mg/L (≈ 6.29 µM) | 0.3 mg/L (≈ 0.755 µM) | – | –
OC(CN1CCN(Cc2ccccc2)CC1)(Cn1ccnc1)c1ccc(Cl)cc1Cl (stereo not drawn) [the 7th table, row 7] | 1.15 | 4.09x10^3 cell/g | – | – | – | – | –
OC(CNCC1CCCO1)(Cn1ccnc1)c1ccc(Cl)cc1Cl (stereo not drawn) [the 5th table, row 4] | – | – | 40 to 100 mg/L (≈ 108 to 270 µM) | 40 to 100 mg/L (≈ 108 to 270 µM) | 40 to 100 mg/L (≈ 108 to 270 µM) | – | –
OC(CSc1ccccc1)(Cn1ccnc1)c1ccc(Cl)cc1Cl (stereo not drawn) | – | – | 10 mg/L (≈ 26.4 µM) | 5 mg/L (≈ 13.2 µM) | 0.15 mg/L (≈ 0.395 µM) | – | –
Clc1ccc(COC(Cn2ccnc2)c2ccc(Cl)cc2Cl)c(Cl)c1 (stereo not drawn) [Miconazole, 1-[2,4-Dichloro-β-(2,4-dichlorobenzyloxy)phenylethyl]imidazole, reference compound] | – | – | – | – | – | 0.8 | 2.96x10^4 cell/g
OC(COc1ccccc1Cl)(Cn1ccnc1)c1ccc(Cl)cc1Cl (stereo not drawn) | – | – | 5 mg/L (≈ 12.6 µM) | 20 mg/L (≈ 50.3 µM) | 1.25 mg/L (≈ 3.14 µM) | – | –
OC(CN1CCN(c2ccccc2)CC1)(Cn1ccnc1)c1ccc(Cl)cc1Cl (stereo not drawn) [the 7th table, row 6] | 1.58 | 1.52x10^3 cell/g | – | – | – | – | –
Cc1cccc(SCC(O)(Cn2ccnc2)c2ccc(Cl)cc2Cl)c1 (stereo not drawn) | – | – | 5 mg/L (≈ 12.7 µM) | 0.6 mg/L (≈ 1.53 µM) | 0.15 mg/L (≈ 0.381 µM) | – | –
CCCCCCCCSCC(O)(Cn1ccnc1)c1ccc(Cl)cc1Cl (stereo not drawn) [CH3-(CH2)7-S-] | – | – | 0.3 mg/L (≈ 0.722 µM) | 1.25 mg/L (≈ 3.01 µM) | 0.15 mg/L (≈ 0.361 µM) | – | –
OC(COCCc1ccccc1)(Cn1ccnc1)c1ccc(Cl)cc1Cl (stereo not drawn) | – | – | 2.5 mg/L (≈ 6.39 µM) | 40 mg/L (≈ 102 µM) | 0.6 mg/L (≈ 1.53 µM) | – | –
OC(CNCc1ccco1)(Cn1ccnc1)c1ccc(Cl)cc1Cl (stereo not drawn) [the 7th table, row 3] | 1.05 | 5.13x10^3 cell/g | – | – | – | – | –
C=CCOCC(O)(Cn1ccnc1)c1ccc(Cl)cc1Cl (stereo not drawn) [CH2=CH-CH2-O-] | – | – | 10 mg/L (≈ 30.6 µM) | 40 to 100 mg/L (≈ 122 to 306 µM) | 1.25 mg/L (≈ 3.82 µM) | – | –
CN1CCN(CC(O)(Cn2ccnc2)c2ccc(Cl)cc2Cl)CC1 (stereo not drawn) [the 5th table, row 5] | – | – | 40 to 100 mg/L (≈ 108 to 271 µM) | 40 mg/L (≈ 108 µM) | 2.5 mg/L (≈ 6.77 µM) | – | –
CCCCSCC(O)(Cn1ccnc1)c1ccc(Cl)cc1Cl (stereo not drawn) [CH3-(CH2)3-S-] | – | – | 0.6 mg/L (≈ 1.67 µM) | 1.25 mg/L (≈ 3.48 µM) | 0.075 mg/L (≈ 0.209 µM) | – | –
OC(CN1CCN(Cc2ccccc2)CC1)(Cn1ccnc1)c1ccc(Cl)cc1Cl (stereo not drawn) [the 5th table, row 7] | – | – | 20 mg/L (≈ 44.9 µM) | 40 to 100 mg/L (≈ 89.8 to 225 µM) | 40 to 100 mg/L (≈ 89.8 to 225 µM) | – | –

SMILES | log reduction at 20 mg/kg (Candida albicans KB-8; [2]) | Medicated group, number of cells in kidney (Candida albicans KB-8; dose 20 mg/kg per os) | MIC (Trichophyton rubrum) | MIC (Candida albicans Ohta) | MIC [1] | log reduction at 100 mg/kg (Candida albicans KB-8; Candida albicans, KB8, po, 24 h, read-out: Medicated/Non-medicated (logarithmic value)) | Medicated group, number of cells in kidney (Candida albicans KB-8; dose 100 mg/kg per os)
CC(C)CCOCC(O)(Cn1ccnc1)c1ccc(Cl)cc1Cl (stereo not drawn) | – | – | 5 mg/L (≈ 14 µM) | 40 mg/L (≈ 112 µM) | 0.6 mg/L (≈ 1.68 µM) | – | –
CC(C)SCC(O)(Cn1ccnc1)c1ccc(Cl)cc1Cl (stereo not drawn) | – | – | 5 mg/L (≈ 14.5 µM) | 40 mg/L (≈ 116 µM) | 0.6 mg/L (≈ 1.74 µM) | – | –
OC(CNC1CCCCC1)(Cn1ccnc1)c1ccc(Cl)cc1Cl (stereo not drawn) | 1.27 | 8.91x10^3 cell/g | – | – | – | – | –
CCCCCCNCC(O)(Cn1ccnc1)c1ccc(Cl)cc1Cl (stereo not drawn) [CH3-(CH2)5-NH-] | 1.52 | 1.75x10^3 cell/g | – | – | – | – | –
OC(CNCCN1CCOCC1)(Cn1ccnc1)c1ccc(Cl)cc1Cl (stereo not drawn) [the 5th table, row 2] | – | – | 40 to 100 mg/L (≈ 100 to 250 µM) | 40 to 100 mg/L (≈ 100 to 250 µM) | 40 to 100 mg/L (≈ 100 to 250 µM) | – | –
OC(CN1CCN(c2ccccc2)CC1)(Cn1ccnc1)c1ccc(Cl)cc1Cl (stereo not drawn) [the 5th table, row 6] | – | – | 0.6 mg/L (≈ 1.39 µM) | 20 mg/L (≈ 46.4 µM) | 5 mg/L (≈ 11.6 µM) | – | –
COc1ccc(SCC(O)(Cn2ccnc2)c2ccc(Cl)cc2Cl)cc1 (stereo not drawn) | – | – | 20 mg/L (≈ 48.9 µM) | 5 mg/L (≈ 12.2 µM) | 0.3 mg/L (≈ 0.733 µM) | – | –
OC(COCCSc1ccccc1)(Cn1ccnc1)c1ccc(Cl)cc1Cl (stereo not drawn) | – | – | 5 mg/L (≈ 11.8 µM) | 20 mg/L (≈ 47.2 µM) | 1.25 mg/L (≈ 2.95 µM) | – | –
OC(CNCc1ccco1)(Cn1ccnc1)c1ccc(Cl)cc1Cl (stereo not drawn) [the 5th table, row 3] | – | – | 40 to 100 mg/L (≈ 109 to 273 µM) | 40 to 100 mg/L (≈ 109 to 273 µM) | 40 to 100 mg/L (≈ 109 to 273 µM) | – | –
OC(CSCc1ccccc1)(Cn1ccnc1)c1ccc(Cl)cc1Cl (stereo not drawn) | – | – | 5 mg/L (≈ 12.7 µM) | 2.5 mg/L (≈ 6.36 µM) | 0.075 mg/L (≈ 0.191 µM) | – | –
OCCNCC(O)(Cn1ccnc1)c1ccc(Cl)cc1Cl (stereo not drawn) [the 5th table, row 1] | – | – | 40 to 100 mg/L (≈ 121 to 303 µM) | 40 to 100 mg/L (≈ 121 to 303 µM) | 40 to 100 mg/L (≈ 121 to 303 µM) | – | –
OCCNCC(O)(Cn1ccnc1)c1ccc(Cl)cc1Cl (stereo not drawn) [the 6th table, row 6] | 1.58 | 1.91x10^3 cell/g | – | – | – | – | –
OC(CNCc1ccccc1)(Cn1ccnc1)c1ccc(Cl)cc1Cl (stereo not drawn) [the 6th table, row 5] | 1.6 | 4.17x10^3 cell/g | – | – | – | – | –
OC(CNCc1ccccc1)(Cn1ccnc1)c1ccc(Cl)cc1Cl (stereo not drawn) [the 5th table, row 0] | – | – | – | 40 to 100 mg/L (≈ 106 to 266 µM) | 40 to 100 mg/L (≈ 106 to 266 µM) | – | –
OC(CSc1ccncc1)(Cn1ccnc1)c1ccc(Cl)cc1Cl (stereo not drawn) | – | – | 20 mg/L (≈ 52.6 µM) | 40 to 100 mg/L (≈ 105 to 263 µM) | 10 mg/L (≈ 26.3 µM) | – | –
CCCCOCC(O)(Cn1ccnc1)c1ccc(Cl)cc1Cl (stereo not drawn) [CH3-(CH2)3-O-, 3-n-butyloxy-2-(2,4-dichlorophenyl)-l-(imidazol-l-yl)-2-propanol] | – | – | 0.6 mg/L (≈ 1.75 µM) | 40 mg/L (≈ 117 µM) | 5 mg/L (≈ 14.6 µM) | – | –
OC(COCc1ccccc1)(Cn1ccnc1)c1ccc(Cl)cc1Cl (stereo not drawn) | – | – | 0.6 mg/L (≈ 1.59 µM) | 40 mg/L (≈ 106 µM) | 10 mg/L (≈ 26.5 µM) | – | –
OC(CNCC1CCCO1)(Cn1ccnc1)c1ccc(Cl)cc1Cl (stereo not drawn) [the 7th table, row 4] | 1.01 | 5.62x10^3 cell/g | – | – | – | – | –
